Laboratory results from patent publication US4716222A, “Substrates for hydrolases” (Hoechst Aktiengesellschaft, priority 1984, dated 1987).

Test: Test paper moistened with a blood plasma solution
Settings: paper impregnated with ethanol solution containing 0.01% substrate
From the text: The crude product was purified on a chromatography column (stationary phase: silica gel; mobile phase: CHCl3 +glacial acetic acid 19:1).

Cc1ccc(S(=O)(=O)NCC(=O)N2CCC[C@H]2C(=O)N[C@@H](CCCNC(=N)N)C(=O)Oc2ccc3c(c2)oc2cc(=O)ccc-2[n+]3[O-])cc1 [Tos-Gly-Pro-Arg-resazurin]
coloration of test paper: immediate blue-violet coloration
